The values that follow are results of earlier work, collected in article PMC7496964 (Chemistry (Weinheim an Der Bergstrasse, Germany), 2020).

For this data set, the target named is human langerin ECD (Homo sapiens, UniProt Q9UJ71).
Sequence of human langerin ECD (Q9UJ71 65-328 limits assumed): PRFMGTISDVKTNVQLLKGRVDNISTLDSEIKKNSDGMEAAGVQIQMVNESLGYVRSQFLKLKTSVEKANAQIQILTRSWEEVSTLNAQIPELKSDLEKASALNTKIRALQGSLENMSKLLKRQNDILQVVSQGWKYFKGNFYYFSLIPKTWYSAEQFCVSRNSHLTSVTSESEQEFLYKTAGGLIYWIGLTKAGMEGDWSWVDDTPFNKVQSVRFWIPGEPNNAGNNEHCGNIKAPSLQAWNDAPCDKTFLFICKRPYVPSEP

1-α-azido B-trisaccharide [compound 10]: the “Langerin affinity (in words), literature” value is “weak affinity”.
